Measurements published in patent US20040024024A1, “Aromatic sulfone hydroxamates and their use as protease inhibitors” (priority 2001, published 2004).
pIC50: −log10 of the molar value.

Assays:
Human recombinant MMP-2 = target: T1, Human recombinant MMP-2 (Homo sapiens, UniProt P08253); test: In vitro MMP inhibition, IC50 determination (fluorogenic substrate I); format: biochemical
T1 construct: made in house; host or cells: MMP-2-transfected p2AHT2 cells
T1 sequence (P08253 110-660): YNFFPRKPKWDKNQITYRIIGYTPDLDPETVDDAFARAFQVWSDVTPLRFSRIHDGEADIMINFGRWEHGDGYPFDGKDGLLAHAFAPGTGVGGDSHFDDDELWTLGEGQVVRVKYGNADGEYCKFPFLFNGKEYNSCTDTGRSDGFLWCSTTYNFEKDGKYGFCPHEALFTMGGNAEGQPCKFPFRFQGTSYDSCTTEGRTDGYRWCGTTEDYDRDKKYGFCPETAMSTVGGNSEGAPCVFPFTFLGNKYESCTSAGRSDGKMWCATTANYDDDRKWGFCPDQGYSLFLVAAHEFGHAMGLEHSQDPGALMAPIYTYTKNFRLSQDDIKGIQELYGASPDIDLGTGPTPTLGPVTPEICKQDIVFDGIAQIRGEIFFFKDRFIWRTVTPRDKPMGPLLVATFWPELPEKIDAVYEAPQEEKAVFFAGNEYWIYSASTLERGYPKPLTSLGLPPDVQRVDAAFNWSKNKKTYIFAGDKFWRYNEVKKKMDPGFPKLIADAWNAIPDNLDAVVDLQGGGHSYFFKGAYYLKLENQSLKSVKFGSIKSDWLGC
Procedure: (§1) Several hydroxamates and salts thereof were analyzed in in vitro assays to determine their ability to inhibit the MMP cleavage of peptide substrates. Inhibition (Ki) and IC50 constants were calculated from the assayed hydroxamate-MMP interactions.
(§2) Human recombinant MMP-1, MMP-2, MMP-9, MMP-13, and MMP-14 were used in this assay. All enzymes were prepared in Assignee's laboratories following usual laboratory procedures. Protocols for the preparation and use of these enzymes are available in the scientific literature. See, e.g., Enzyme Nomenclature (Academic Press, San Diego, Calif., 1992) (and the citations therein). See also, Frije et al., J. Biol. Chem., 26(24), 16766-73 (1994).
The MMP-2 proenzyme was purified by gelatin Sepharose chromatography from MMP-2-transfected p2AHT2 cells provided by Dr. Gregory Goldberg of Washington University (St. Louis, Mo.).
(§3) All MMPs were activated using 4-aminophenylmercuric acetate (“APMA”, Sigma Chemical, St. Louis, Mo.) or trypsin. MMP-9 also was activated using human recombinant MMP-3 (purified in Assignee's laboratory following standard cloning and purification techniques).
(§4) Two fluorogenic, methoxycoumarin-containing polypeptide substrates were used in the MMP inhibition assays:
(§5) MCA-ProLeuGlyLeuDpaAlaArgNH2 (I)
(§6) Here, “Dpa” is 3-(2,4-dinitrophenyl)-L-2,3-diaminopropionyl group, and “MCA” is 7-methoxycoumarin-4-yl acetyl. Substrate (I) was purchased from Baychem (Redwood City, Calif.), and substrate II was prepared Assignee's laboratory. Substrate I was used in the IC50 determination assays, while substrate II was used in the Ki determination assays. In the absence of MMP inhibitory activity, either substrate is cleaved at the Gly-Leu peptide bond. This cleavage separates the highly fluorogenic peptide from the 2,4-dinitrophenyl quencher, thus resulting in increase of fluorescent intensity.
(§7) The stock solutions of the assayed hydroxamates (or salts thereof) were prepared in 1% dimethyl sulfoxide (DMSO). These stock solutions were diluted in Buffer A (100 mM Tris-HCl, 100 mM NaCl, 10 mM CaCl2, 0.05% polyoxyethylene 23 lauryl ether, pH 7.5) to obtain solutions with different hydroxamate concentrations, i.e., assay solutions with different concentrations of the assayed MMP inhibitory compound. The experiment controls contained the same amount of Buffer A/DMSO as the assayed sample, but contained no hydroxamate (or salt thereof).
(§8) The assays from which the IC50 determinations were made were performed as follows. The MMPs were activated with either trypsin or APMA (4-aminophenylmercuric acetate, Sigma Chemical, St. Louis, Mo.). The assayed hydroxamate samples were, incubated in Microfluorrm White Plates (Dynatech, Chantilly, VA) and analyzed on a Perkin Elmer L550 plate reader (Norwalk, Conn.). The excitation wavelength was 328 nm, and the emission wavelength—415 nm. All samples (assayed hydroxamates and controls) were incubated in separate plates at room temperature in the presence of 4 μM of MMP substrate (I). As stated in the previous paragraph, samples containing varying concentrations of the same assayed hydroxamate were prepared. Inhibition was measured as a reduction in fluorescent intensity as a function of MMP inhibitor concentration.

Human recombinant MMP-13 = target: T2, Human recombinant MMP-13 (Homo sapiens, UniProt P45452); test: as above; format: biochemical
T2 construct: made in house; host or cells: baculovirus / insect cells
Procedure: as §1, §2
The expressed proenzyme was first purified over a heparin agarose column, and then over a chelating zinc chloride column. The proenzyme was then activated by APMA for use in the assay. Further details on baculovirus expression systems may be found in, for example, Luckow et al., J. Virol., 67, 4566-79 (1993). See also, O'Reilly et al, Baculovirus Expression Vectors: A Laboratory Manual (W. H. Freeman and Co., New York, N.Y., 1992). See also, King et al., The Baculovirus Expression System: A Laboratory Guide (Chapman & Hall, London, England, 1992).
as §3, §4, §5, §6, §7, §8

[1] = substrate (I) 4 μM, room temperature, values not in parenthesis

| SMILES | pIC50 (Human recombinant MMP-2; [1]) | pIC50 (Human recombinant MMP-13; [1]) | pIC50 (Human recombinant MMP-2; value outside parenthesis) | pIC50 (Human recombinant MMP-13; value outside parenthesis) |
| --- | --- | --- | --- | --- |
| COc1ccc(C(=O)NCCCOc2ccc(S(=O)(=O)C3(C(=O)NO)CCOCC3)cc2)cc1 [Example 17, tetrahydro-N-hydroxy-4-[[4-[3-[(4-methoxybenzoyl)amino]propoxy]phenyl]sulfonyl]-2H-pyran-4-carboxamide] | 6.26 | 8.80 |  |  |
| O=C(NO)C1(S(=O)(=O)c2ccc(OCCCc3ccc4ccccc4c3)cc2)CCOCC1 [Example 36] | 7.02 | 8.62 |  |  |
| CC(C)c1cccc(CCCOc2ccc(S(=O)(=O)C3(C(=O)NO)CCOCC3)cc2)c1 [Example 94] |  |  | 7.75 | 8.43 |
| CC(C)CCc1cccc(CCCOc2ccc(S(=O)(=O)C3(C(=O)NO)CCOCC3)cc2)c1 [Example 96] |  |  | 7.41 | 7.82 |
| COCCN1CCC(C(=O)NO)(S(=O)(=O)c2ccc(OCCCc3nc(-c4ccc(CCC(C)C)cc4C)no3)cc2)CC1 [Example 100] |  |  | 5.77 | 6.82 |
| O=C(NCCCOc1ccc(S(=O)(=O)C2(C(=O)NO)CCOCC2)cc1)c1cc2ccccc2o1 [Example 101] |  |  | 7.74 | 9.70 |
| COCCN1CCC(C(=O)NO)(S(=O)(=O)c2ccc(OCCCn3nnc(-c4ccc(S(C)(=O)=O)cc4)n3)cc2)CC1 [Example 104] |  |  | 7.35 | 9.10 |
| O=C(NO)C1(S(=O)(=O)c2ccc(OCCCc3csc(-c4ccccc4)n3)cc2)CCOCC1 [Example 107] |  |  | 7.47 | 8.26 |
| COCCN1CCC(C(=O)NO)(S(=O)(=O)c2ccc(OCCCN3C(=O)[C@@H](C)N(c4ccccc4)C3=O)cc2)CC1 [Example 108] |  |  | 6.36 | 7.70 |
| NC(=O)c1cccc(-c2noc(CCCOc3ccc(S(=O)(=O)C4(C(=O)NO)CCN(C5CC5)CC4)cc3)n2)c1 [Example 131] |  |  | 6.97 | 8.35 |
| O=C(NO)C1(S(=O)(=O)c2ccc(OCc3nc(-c4ccc(OC(F)(F)F)cc4)no3)cc2)CCOCC1 [Example 132] |  |  | 7.21 | 8.43 |
| O=C1CN(c2ccc(OC(F)(F)F)cc2)C(=O)N1CCCOc1ccc(S(=O)(=O)C2(C(=O)NO)CCN(C3CC3)CC2)cc1 [Example 133] |  |  | 7.07 | 8.37 |
| C[C@@H]1C(=O)N(CCCOc2ccc(S(=O)(=O)C3(C(=O)NO)CCOCC3)cc2)C(=O)N1c1ccc(OC(F)(F)F)cc1 [Example 136] |  |  | 6.64 | 8.36 |
| COCCN1CCC(C(=O)NO)(S(=O)(=O)c2ccc(OCCCn3nnc(-c4cc(F)ccc4C)n3)cc2)CC1 [Example 141] |  |  | 7.49 | 8.44 |
| COCCN1CCC(C(=O)NO)(S(=O)(=O)c2ccc(OCCCn3nnc(-c4cccs4)n3)cc2)CC1 [Example 143] |  |  | 8.31 | 8.85 |
| COCCN1CCC(C(=O)NO)(S(=O)(=O)c2ccc(OCCCn3nnc(-c4ccc5c(c4)OCO5)n3)cc2)CC1 [Example 146] |  |  | 7.95 | 9.40 |
| COCCN1CCC(C(=O)NO)(S(=O)(=O)c2ccc(OCCCn3nnc(-c4ccccc4C)n3)cc2)CC1 [Example 151] |  |  | 7.42 | 8.59 |
| O=C(NO)C1(S(=O)(=O)c2ccc(OCCCc3cccc(-c4ccccn4)c3)cc2)CCOCC1 [Example 153] |  |  | 6.72 | 8.12 |
| CCOc1ccc(-c2nnn(CCCOc3ccc(S(=O)(=O)C4(C(=O)NO)CCN(CCOC)CC4)cc3)n2)cc1 [Example 156] |  |  | 7.49 | 9.00 |
